Publication PMC10949335, “Identification of a novel DNA repair inhibitor using an in silico driven approach shows effective combinatorial activity with genotoxic agents against multidrug‐resistant Escherichia coli” (Protein Science : A Publication of the Protein Society, 2024)

What was measured:
[1] = biological target: T1, UvrA (Escherichia coli, UniProt P0A698); experiment: NADH-linked ATPase assay, Hill fit; type: biochemical
T1 construct: recombinant, IPTG-induced, Ni-NTA purified; plasmid as in Bernacchia et al. 2023; homodimer

[2] = biological target: T2, UvrA-mNeonGreen (UvrA-mNG) (Escherichia coli, UniProt P0A698); experiment: C-trap optical tweezers, single-molecule DNA binding; type: biochemical; conditions: 20 μM Bemcentinib; lambda DNA at 50 pN; 1 mM ATP, 10 mM MgCl2, pH 7.5
T2 construct: C-terminal mNeonGreen reporter fusion; plasmid as in Bernacchia et al. 2023
T2 sequence (P0A698 whole entry, the tested form may be a part): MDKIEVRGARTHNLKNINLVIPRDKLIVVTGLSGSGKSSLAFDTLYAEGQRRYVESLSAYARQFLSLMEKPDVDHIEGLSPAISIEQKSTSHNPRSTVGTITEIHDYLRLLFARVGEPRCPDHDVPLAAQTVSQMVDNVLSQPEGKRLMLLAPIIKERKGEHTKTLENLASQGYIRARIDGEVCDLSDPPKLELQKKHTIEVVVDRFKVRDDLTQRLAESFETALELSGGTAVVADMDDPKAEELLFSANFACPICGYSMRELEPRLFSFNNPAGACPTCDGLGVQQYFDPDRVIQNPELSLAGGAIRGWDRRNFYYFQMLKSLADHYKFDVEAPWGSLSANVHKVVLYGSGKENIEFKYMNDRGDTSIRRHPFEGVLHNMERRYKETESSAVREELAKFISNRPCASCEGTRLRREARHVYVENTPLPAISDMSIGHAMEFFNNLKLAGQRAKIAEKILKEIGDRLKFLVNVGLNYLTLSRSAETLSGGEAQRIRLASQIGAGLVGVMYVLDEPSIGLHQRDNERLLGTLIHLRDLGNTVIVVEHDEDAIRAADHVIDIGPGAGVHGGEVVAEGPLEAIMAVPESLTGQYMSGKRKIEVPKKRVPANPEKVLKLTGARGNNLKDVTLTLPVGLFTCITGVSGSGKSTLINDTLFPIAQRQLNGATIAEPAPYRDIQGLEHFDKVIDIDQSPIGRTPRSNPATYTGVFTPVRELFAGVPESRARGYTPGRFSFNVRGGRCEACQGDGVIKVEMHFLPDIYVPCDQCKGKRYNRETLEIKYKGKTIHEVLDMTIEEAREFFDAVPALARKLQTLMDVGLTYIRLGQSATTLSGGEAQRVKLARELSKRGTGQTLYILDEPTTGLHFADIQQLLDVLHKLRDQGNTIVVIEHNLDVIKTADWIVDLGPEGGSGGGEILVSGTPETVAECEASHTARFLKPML

T1 sequence (P0A698 whole entry): as the sequence (P0A698 whole entry, the tested form may be a part) above

For Nc1nc(Nc2ccc3c(c2)CC[C@@H](N2CCCC2)CC3)nn1-c1cc2c(nn1)-c1ccccc1CCC2 [Bemcentinib], the IC50 [1] was 7.49 µM and the “% reduction in DNA binders per minute at 20 μM” value [2] was ~ 90%.
